# Measurements published in patent US20100292222A1, “CHEMICAL COMPOUNDS 751” (ASTRAZENECA AB, priority 2009, published 2010).
# Biological target: T1, Androgen Receptor (AR) (Homo sapiens, UniProt P10275, T878A)
# T1 construct: cell based immuno-fluorescence assay using the LNCaP prostate epithelial cell line; host or cells: LNCaP clone FGC prostate carcinoma cells
# T1 sequence (P10275 1-920 T878A): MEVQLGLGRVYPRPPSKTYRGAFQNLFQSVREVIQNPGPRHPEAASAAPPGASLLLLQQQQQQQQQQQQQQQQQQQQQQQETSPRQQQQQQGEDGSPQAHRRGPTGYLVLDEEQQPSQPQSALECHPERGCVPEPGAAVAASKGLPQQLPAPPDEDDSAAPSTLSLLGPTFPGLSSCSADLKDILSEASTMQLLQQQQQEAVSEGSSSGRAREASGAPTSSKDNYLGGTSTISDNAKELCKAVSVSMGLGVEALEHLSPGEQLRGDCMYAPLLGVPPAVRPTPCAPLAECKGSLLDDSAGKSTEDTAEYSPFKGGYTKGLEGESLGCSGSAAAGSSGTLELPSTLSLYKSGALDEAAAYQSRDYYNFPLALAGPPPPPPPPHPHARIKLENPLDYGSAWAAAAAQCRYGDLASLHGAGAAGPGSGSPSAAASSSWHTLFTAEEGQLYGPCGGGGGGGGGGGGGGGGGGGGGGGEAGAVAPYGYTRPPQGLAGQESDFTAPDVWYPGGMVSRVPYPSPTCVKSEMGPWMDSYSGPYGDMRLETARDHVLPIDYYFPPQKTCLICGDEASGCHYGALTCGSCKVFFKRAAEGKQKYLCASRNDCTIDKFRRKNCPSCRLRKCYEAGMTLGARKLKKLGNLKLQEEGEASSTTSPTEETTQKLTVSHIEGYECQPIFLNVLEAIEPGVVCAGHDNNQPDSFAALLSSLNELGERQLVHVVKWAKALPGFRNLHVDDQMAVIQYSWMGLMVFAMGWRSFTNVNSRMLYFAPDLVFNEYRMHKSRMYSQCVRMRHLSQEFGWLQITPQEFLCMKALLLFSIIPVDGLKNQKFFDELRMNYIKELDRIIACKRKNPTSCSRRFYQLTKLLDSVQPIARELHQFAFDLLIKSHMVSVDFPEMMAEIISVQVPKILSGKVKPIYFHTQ
# Assay: LNCaP Androgen Receptor Down-Regulation Cell Assay
# Assay type: cell-based
# Settings: LNCaP prostate carcinoma cell line; 20-22 hours incubation; immunofluorescence; 50% reduction of the AR signal
# Experimental: The ability of compounds to reduce Androgen Receptor (AR) numbers was assessed in a cell based immuno-fluorescence assay using the LNCaP prostate epithelial cell line.
# This immunofluorescence end point assay measures the ability of a test compound to down-regulate and reduce measured levels of the AR in the LNCaP prostate carcinoma cell line (LNCaP clone FGC (CRL-1740) obtained from the American Type Culture Collection (ATCC)).
# LNCaP cells were cultured in Growth Medium (phenol red free Roswell Park Memorial Institute (RPMI) 1640 (Invitrogen Code no. 11835-063) containing 2 mM L-Glutamine (Invitrogen Code no. 25030-024) and 1% (v/v) Penicillin/Streptomycin (10000 units/ml Penicillin and 10000 μg/ml of Streptomycin utilising penicillin G (sodium salt) and streptomycin sulphate: prepared in normal saline, Invitrogen Code no. 15140122) and 10% (v/v) foetal bovine serum (FBS)) in a 5% CO2 air incubator at 37° C. Cells for assay were harvested from T175 stock flasks by washing once in PBS (phosphate buffered saline, pH 7.4) (Invitrogen Code no. 14190-094) and harvested using 5 mls of 1× Trypsin/ethylaminediaminetetraacetic acid (EDTA) (10× Trypsin-EDTA, 5.0 g/L Trypsin, 2.0 g/L of EDTA•4Na and 8.5 g/L of NaCl, without Phenol Red, Invitrogen Code no. 15400-054) diluted in PBS solution. A 5 ml volume of Growth Medium was added to each flask (as above except that 5% (v/v) charcoal stripped FBS (HyClone Code no. SH30068.03) was included instead of 10% (v/v) FBS). Cells were syringed at least twice using a sterile 18G×1.5″ (1.2×40 mm) broad gauge needle and cell density was measured using a haemocytometer. Cells were further diluted in Growth Medium plus 5% (v/v) charcoal stripped FBS and seeded at a density of 6.5×10^3 cells per well (in 90 ul) into transparent, black, tissue culture treated 96 well plates (Packard, No. 6005182).
# Test data reported herein was generated using two different compounds preparation and dosing methods. In method (1) a 10 mM compound stock solution in 100% (v/v) DMSO was serially diluted in 4-fold steps in 100% (v/v) DMSO using a Thermo Scientific Matrix SerialMate. The diluted compounds were then further diluted 1 in 30 in assay media using a Thermo Scientific Matrix PlateMate and a 10 μl aliquot of this dilution was dosed to cells manually using a multi-channel pipette. In method (2) starting with a 10 mM compound stock solution, the Labcyte Echo 550 was used to generate a compound concentration response set diluted in 30 μl of assay media. The Echo 550 is a liquid handler that uses acoustic technology to perform direct microplate-to-microplate transfers of DMSO compound solutions. The system can be programmed to transfer volumes as low as […] in multiple increments between microplates and in so doing generates a serial dilution of compound which is then back-filled to normalise the DMSO is concentration across the dilution range. A 10 μl volume of diluted compound is then dosed to cells using a Thermo Scientific Matrix PlateMate.
# Plates were incubated overnight at 37° C., 5% CO2. Wells were then dosed with compound prepared by one of the 2 methods above and further incubated for 20-22 hours at 37° C., 5% CO2. Plates were fixed by the addition of 20 μl of 10% (v/v) formaldehyde solution (in PBS) to each well (final formaldehyde conc.=1.67% (v/v)) and left at room temperature for 10 mins. This fixative solution was removed and cells were washed with 250 μl of PBS/0.05% (v/v) Tween 20 (PBST) using an automated plate washer. This process was then repeated twice more.
# Immunostaining was performed at room temperature. Cells were permeabilised by the addition of 35 μl of PBS containing 0.5% Tween 20 and incubated for 1 hour at room temperature. Permeabilisation solution was removed and cells were washed with 250 μl of PBST using an automated plate washer. This process was then repeated twice more. […]
row,IC50 [nM],Compound
1,56,"CN1CCN(CCOc2ccc(C3CCN(c4ccc5nnc(C(F)(F)F)n5n4)CC3)cc2)CCC1=O [Example 32, 4-methyl-1-[2-(4-{1-[3-(trifluoromethyl)[1,2,4]-triazolo[4,3-b]pyridazin-6-yl]piperidin-4-yl}phenoxy)ethyl]-1,4-diazepan-5-one]"
2,360,"CN1CCN(CCOc2ccc(C3(O)CCN(c4ccc5nnc(C(F)(F)F)n5n4)CC3)cc2)CC1=O [Example 3, 4-[2-(4-[4-hydroxy-1-[3-(trifluoromethyl)[1,2,4]-triazolo[4,3-b]pyridazin-6-yl]piperidin-4-yl]phenoxy)ethyl]-1-methylpiperazin-2-one]"
3,490,"O=C1CN(CCOc2ccc(C3(O)CCN(c4ccc5nnc(C(F)(F)F)n5n4)CC3)cc2)CCN1C1CC1 [Example 38, 1-cyclopropyl-4-[2-(4-{4-hydroxy-1-[3-(trifluoromethyl)[1,2,4]triazolo[4,3-b]pyridazin-6-yl]piperidin-4-yl}phenoxy)ethyl]piperazin-2-one]"
4,84,"CC(=O)N1CCN([C@H](C)COc2ccc(C3(O)CCN(c4ccc5nnc(C(F)(F)F)n5n4)CC3)cc2)CC1 (single isomer, unassigned) [Example 43, 4-{4-[2-(4-acetylpiperazin-1-yl)propoxy]phenyl}-1-[3-(trifluoromethyl)[1,2,4]triazolo[4,3-b]pyridazin-6-yl]piperidin-4-ol]"
5,260,"Cc1cc(OCCN2CCN(C)C(=O)C2)ccc1C1(O)CCN(c2ccc3nnc(C(F)(F)F)n3n2)CC1 [Example 31, 4-[2-(4-{4-hydroxy-1-[3-(trifluoromethyl)[1,2,4]-triazolo[4,3-b]pyridazin-6-yl]piperidin-4-yl}-3-methylphenoxy)ethyl]-1-methylpiperazin-2-one]"
6,73,"CN1CCN(CCOc2ccc(C3(O)CCN(c4ccc5nnc(C(F)(F)F)n5n4)CC3)c(F)c2)CC1=O [Example 36, 4-[2-(3-fluoro-4-[4-hydroxy-1-[3-(trifluoromethyl)[1,2,4]triazolo[4,3-b]pyridazin-6-yl]piperidin-4-yl]phenoxy)ethyl]-1-methylpiperazin-2-one]"

# Further lines, the compound ahead of its results:
row,Compound,IC50 [nM]
1,"CN1CCN(CCOc2ccc(C3CCN(c4ccc5nnc(C(F)(F)F)n5n4)CC3)cc2)CC1=O [Example 2, 1-methyl-4-[2-(4-{1-[3-(trifluoromethyl)[1,2,4]-triazolo[4,3-b]pyridazin-6-yl]piperidin-4-yl}phenoxy)ethyl]piperazin-2-one]",310
2,"COCCN1CCN(CCCOc2ccc(C3CCN(c4ccc5nnc(C(F)(F)F)n5n4)CC3)cc2)CC1=O [Example 17, 1-(2-methoxyethyl)-4-[3-(4-{1-[3-(trifluoromethyl)[1,2,4]triazolo[4,3-b]pyridazin-6-yl]piperidin-4-yl}phenoxy)propyl]piperazin-2-one]",530
3,"CN1CCN(CCOc2ccc(C3CCN(c4ccc5nnc(C(F)(F)F)n5n4)CC3)cc2F)CC1=O [Example 13, 4-[2-(2-fluoro-4-{1-[3-(trifluoromethyl)[1,2,4]triazolo[4,3-b]pyridazin-6-yl]piperidin-4-yl}phenoxy)ethyl]-1-methylpiperazin-2-one]",310
4,"CN1CCN(CCCOc2ccc(C3CCN(c4ccc5nnc(C(F)(F)F)n5n4)CC3)cc2)CC1=O [Example 9, 1-methyl-4-[3-(4-{1-[3-(trifluoromethyl)[1,2,4]triazolo[4,3-b]pyridazin-6-yl]piperidin-4-yl}phenoxy)propyl]piperazin-2-one]",300
5,"CC(C)N1CCN(CCCOc2ccc(C3CCN(c4ccc5nnc(C(F)(F)F)n5n4)CC3)cc2)CC1=O [Example 16, 1-(1-methylethyl)-4-[3-(4-{1-[3-(trifluoromethyl)[1,2,4]triazolo[4,3-b]pyridazin-6-yl]piperidin-4-yl}phenoxy)propyl]piperazin-2-one]",610
